System: SEM cells
Experiment: cell viability relative to DMSO control; higher = less cytotoxic
Conditions: 48 h
Outline: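 Cells were incubated for 48 h at 37°C before CellTiter-Glo One luminescence was read. The cells were NOMO1 or SEM (500 cells/well) or P12-Ichikawa (1000 cells/well) leukemia cells, adapted for at least four passages in each medium and seeded in 1536-well plates (5 μl). Dosing used library compounds in DMSO applied by pin over 11 threefold points, 47 μM to 0.79 nM. Viability is the per-plate percentage of DMSO wells, with cell-free wells as background.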

[1] = HPLM + 10% dialyzed FBS, 0.000781 µM
[2] = HPLM + 10% dialyzed FBS, 0.00234 µM
[3] = HPLM + 10% dialyzed FBS, 0.00702 µM
[4] = HPLM + 10% dialyzed FBS, 0.0211 µM
[5] = HPLM + 10% dialyzed FBS, 0.0632 µM
[6] = HPLM + 10% dialyzed FBS, 0.19 µM
[7] = HPLM + 10% dialyzed FBS, 0.569 µM
[8] = HPLM + 10% dialyzed FBS, 1.71 µM
[9] = HPLM + 10% dialyzed FBS, 5.12 µM
[10] = HPLM + 10% dialyzed FBS, 15.4 µM
[11] = HPLM + 10% dialyzed FBS, 46.1 µM
[12] = RPMI 5 mM glucose + 10% FBS, 0.000781 µM
[13] = RPMI 5 mM glucose + 10% FBS, 0.00234 µM
[14] = RPMI 5 mM glucose + 10% FBS, 0.00702 µM
[15] = RPMI 5 mM glucose + 10% FBS, 0.0211 µM
[16] = RPMI 5 mM glucose + 10% FBS, 0.0632 µM
[17] = RPMI 5 mM glucose + 10% FBS, 0.19 µM
[18] = RPMI 5 mM glucose + 10% FBS, 0.569 µM
[19] = RPMI 5 mM glucose + 10% FBS, 1.71 µM
[20] = RPMI 5 mM glucose + 10% FBS, 5.12 µM
[21] = RPMI 5 mM glucose + 10% FBS, 15.4 µM
[22] = RPMI 5 mM glucose + 10% FBS, 46.1 µM
[23] = RPMI 5 mM glucose + 10% dialyzed FBS, 0.000781 µM
[24] = RPMI 5 mM glucose + 10% dialyzed FBS, 0.00234 µM
[25] = RPMI 5 mM glucose + 10% dialyzed FBS, 0.00702 µM
[26] = RPMI 5 mM glucose + 10% dialyzed FBS, 0.0211 µM
[27] = RPMI 5 mM glucose + 10% dialyzed FBS, 0.0632 µM
[28] = RPMI 5 mM glucose + 10% dialyzed FBS, 0.19 µM
[29] = RPMI 5 mM glucose + 10% dialyzed FBS, 0.569 µM
[30] = RPMI 5 mM glucose + 10% dialyzed FBS, 1.71 µM
[31] = RPMI 5 mM glucose + 10% dialyzed FBS, 5.12 µM
[32] = RPMI 5 mM glucose + 10% dialyzed FBS, 15.4 µM
[33] = RPMI 5 mM glucose + 10% dialyzed FBS, 46.1 µM

Compound	cell viability [1] [%]	cell viability [2] [%]	cell viability [3] [%]	cell viability [4] [%]	cell viability [5] [%]	cell viability [6] [%]	cell viability [7] [%]	cell viability [8] [%]	cell viability [9] [%]	cell viability [10] [%]	cell viability [11] [%]	cell viability [12] [%]	cell viability [13] [%]	cell viability [14] [%]	cell viability [15] [%]	cell viability [16] [%]	cell viability [17] [%]	cell viability [18] [%]	cell viability [19] [%]	cell viability [20] [%]	cell viability [21] [%]	cell viability [22] [%]	cell viability [23] [%]	cell viability [24] [%]	cell viability [25] [%]	cell viability [26] [%]	cell viability [27] [%]	cell viability [28] [%]	cell viability [29] [%]	cell viability [30] [%]	cell viability [31] [%]	cell viability [32] [%]	cell viability [33] [%]
c1ccc(-c2oc3ncnc(NC[C@@H]4CCCO4)c3c2-c2ccccc2)cc1	115	115	114	121	126	130	125	134	128	121	79.4	111	112	109	103	108	110	105	106	112	99.9	61.1	121	129	115	118	104	136	111	112	118	124	69.6
CC(C)Oc1ccc(C(=O)N[C@H](CNC(=O)CN(C)C)Cc2ccc(-c3cn4cccc([C@H](C)O)c4n3)cc2)cc1Cl	116	129	112	109	118	118	102	44.5	33.5	39.9	48.5	–	–	–	–	–	–	–	–	–	–	–	117	119	117	125	111	111	111	38.2	34.4	29.4	35.5
Cc1onc(-c2ccccc2)c1C(=O)N[C@@H]1C(=O)N2[C@@H]1SC(C)(C)[C@@H]2C(=O)[O-].[Na+]	85.9	75.7	87.2	84	86.5	75.3	89.6	93.4	85.2	82.1	80.2	109	94.2	105	114	108	109	114	86.4	102	132	103	115	104	111	113	133	112	118	107	111	108	100
C[C@H]1O[C@H](C[C@H](O)[C@@H]1O)O[C@H]2[C@@H](O)C[C@@H](O[C@@H]2C)O[C@H]3[C@@H](O)C[C@@H](O[C@@H]3C)O[C@H]4CC[C@@]5(C)[C@H](CC[C@@H]6[C@@H]5C[C@@H](O)[C@]7(C)[C@H](CC[C@]67O)C/8=C/C(=O)OC8)C4	117	106	122	123	30.4	15.2	11	7.74	7.71	8.32	6.4	–	–	–	–	–	–	–	–	–	–	–	–	–	–	–	–	–	–	–	–	–	–
N=C1N[C@H]2[C@H](CS[C@H]2CCCCC(=O)O)N1	80.4	109	91.8	97.2	111	108	25.3	112	117	112	109	87.6	115	108	106	107	107	15.4	115	110	115	121	108	105	111	118	117	101	18.4	121	122	124	128
CC[C@]1(O)C[C@@H]2CN(CCc3c([nH]c4ccccc34)[C@@](C(=O)OC)(c3cc4c(cc3OC)N(C)[C@H]3[C@@](O)(C(N)=O)[C@H](O)[C@]5(CC)C=CCN6CC[C@]43[C@@H]65)C2)C1	123	110	114	106	89.2	43.2	26.3	20.5	20	15.7	6.67	–	–	–	–	–	–	–	–	–	–	–	118	104	124	124	97.8	44.8	26.6	24.3	20.4	16.3	5.01
CO/N=C(\C(=O)N[C@@H]1C(=O)N2C(C(=O)OCOC(=O)C(C)(C)C)=C(/C=C\c3scnc3C)CS[C@H]12)c1csc(N)n1	75.6	89.4	86.9	80.8	93.7	101	94.8	97.3	86.7	90.6	70.4	87.1	90.7	91.4	76.6	89	103	91.5	98.9	86.5	65.2	58.5	75.3	101	108	93.7	119	102	99.4	125	105	73	62.9
CC(C)OC1=CC=C2C(=C1)O\C=C(/C2=O)C3=CC=CC=C3	106	118	105	118	115	123	110	125	112	133	106	113	123	134	109	131	130	133	144	128	144	116	106	133	121	126	129	146	157	156	147	148	126
CNC(=O)[C@H](CC/1=C/N=C\2/C=C\C\C=C12)NC(=O)[C@H](CC(C)C)CC(=O)NO	104	103	108	111	120	104	112	118	120	105	101	111	134	122	133	117	118	116	110	132	120	114	95	99.2	104	100	113	88.9	99.7	102	94.4	102	90.1
COc1cc(CNC(=O)CCCC/C=C/C(C)C)ccc1O	88.8	92.6	104	99	101	96.6	79.7	36.7	32.9	29.7	18.6	110	110	121	123	107	111	56.7	19.3	21.4	15.9	12.5	94.3	93.2	98.7	101	94.6	93.8	86.6	23.6	27.2	19	15.4
CC(O)C1C2C(C)\C(=C(/N2C1=O)C(O)=O)SC3CNC(C3)C(=O)N(C)C (stereo not drawn)	79.6	64.9	84	88.8	90.4	81.4	86.7	82.3	90.7	77.9	78.5	80.9	77.2	85.2	90.7	84.1	75.7	92.2	85.4	90.7	83.9	90.6	86	68.8	98.7	92.7	104	107	90.8	90.2	104	88.3	73.9
CCN(c1ccccc1)c1cc(NC)[n+](C)c(C)n1	110	107	108	101	107	114	99.5	116	104	102	97.9	111	97.2	96.4	105	99.5	101	87.7	100	105	95.3	101	101	105	97.4	108	99.9	97.4	105	99.1	107	106	100
CO/N=C(/C(=O)N[C@@H]1C(=O)N2C(C(=O)O)=C(CSC(=O)c3ccco3)CS[C@H]12)c1csc(N)n1	62.8	72.5	71.3	68.5	77.7	76.5	82.3	77.6	76.9	88.4	74.8	77.5	86.9	89.6	91.3	97.8	102	106	105	90.6	108	103	89.1	93.8	107	117	93	107	118	111	120	123	113
O=C(/C=C/c1ccc(O)cc1)c1ccc(O)cc1O	113	112	131	108	141	131	120	109	124	81.2	26.6	118	122	134	125	124	133	106	116	111	79.6	17	98	94.4	118	91.9	121	105	100	91	81.8	59.5	9.38
